Where two headings read alike, the source gives them in different places.
Legend:
[1] = tested on: RSV-A2-GFP virus; test: microbe, parasite or virus in culture; assay type: cell-based, Human Respiratory Syncytial Virus; settings: Calu-1 cells, RSV-A2-GFP MOI=1.2, 96 hrs, GFP-expressing cells counted
Procedure: To set up the assay, ARF vials were thawed in a 37° C. water bath and a control compound was resuspended in assay media DMEM (Dulbecco's Modified Eagle Medium) containing 2% FBS, 100 U/ml Penicillin-Streptomycin.
GFP sequence was derived from pJTI™ R4 Dest CMV N-EmGFP pA Vector (Invitrogen) and was cloned into the intergenic sequence between wild-type RSV-A2 P and M genes using standard recombineering techniques. Recombinant RSV-A2-GFP was propagated in Hep2 cells (human cells contain HeLa marker chromosomes and were derived via HeLa contamination, ATCC CCL-23) with a Multiplicity of Infection (MOI) of 0.1. Virus was harvested 3 days after infection by collecting all culture material and then freeze-thawing the mixture for 5 minutes. Working virus stocks were generated by thawing frozen viral cultures in 37° C. water bath, which were centrifuged at 218 g for 15 min at 4° C. 1/10 of 10×SPG (Biological Industries 06-3061-01-5A) were added and then mixed. The supernatant was aliquoted, frozen in liquid nitrogen, and then transferred to a −80° C. freezer for storage. Virus titer was determined by automated plaque assay in HEp-2 cells following methods described previously (Wen Z. et al.; 2019).
Calu-1 cells were purchased from ATCC (Cat #HTB-54) and were expanded in growth media (DMEM containing 10% FBS, 100 U/ml Penicillin-Streptomycin). To make ARF, cell culture media was removed and discarded and the cell layer was briefly rinsed with PBS to remove serum. 2.5 mL of TrypLE Express solution were added and cells incubated until dislodged, to which growth media was added and the cells were resuspended by gentle pipetting. Cells were counted for concentration and viability as determined by ViCell. Cells were centrifuged at RT, 300 g for 5 minutes to pellet cells. The supernatant was gently aspirated and the pellet was flicked to loosen cells. Cells were resuspended in an appropriate volume of freezing medium (DMEM containing 10% DMSO, 10% FBS, 100 U/ml Penicillin-Streptomycin) to achieve a concentration of 5×10^6 cells/mL. 1 mL aliquots of the cell suspension were transferred to freezing vials. The vials were put into an upright container in a −80° C. freezer overnight before transferring vials to liquid nitrogen for storage
Assay ready freeze-down (ARF, generation described separately) Calu-1 cells (ATCC HTB-54) were used. Compound plates were prepared by dispensing compounds dissolved in DMSO into the wells of a 384 well Corning® 3985 plate with an ECHO acoustic dispenser and compounds were tested in 10-point serial 3-fold dilution. […] To set up the assay, ARF vial(s) were thawed in a 37° C. water bath and were then resuspended into assay media (DMEM containing 2% FBS, 100 U/ml Penicillin-Streptomycin). Cells were counted using default parameters on ViCell and diluted to 20,000 cells/mL in assay media. RSV-A2-GFP virus was added to cells at 24,000 pfu/ml (MOI=1.2) and mixed by gentle inversion. 10 μL/well of 100% DMSO was dispensed as CellTiter-Glo (CTG) assay Max_E controls wells. The cells were dispensed at 50 μL/well using Bravo with 50 μL filtered tips into compound plates. Plates were covered with MicroClime lids, loaded with 7.5 mL of assay media to minimize evaporation, and were incubated at 37° C. and 5% CO2 for 96 hrs. Following incubation, distinct, GFP-expressing cells were counted using an Acumen imaging system with appropriate settings. A same-well CTG assay was performed by adding 10 μL/well reconstituted CellTiter-Glo reagent (Promega G7573) and plates were read on PerkinElmer Envision according to manufacturer's instructions. Raw data were loaded and analyzed in ActivityBase. Antiviral IC50 and cytotoxicity CC50 values were determined using a 4 parameter logistic fit based on the Levenberg-Marquardt algorithm. Model: 205-4 Parameter Logistic.

[2] = tested on: hMPV-GFP virus; test: microbe, parasite or virus in culture; assay type: cell-based, Human Metapneumovirus; settings: VERO cells, hMPV-GFP MOI=1.25, 48 hrs, GFP-expressing cells counted
Procedure: GFP expressing rgHMPV #3 p3 was generated in Dr. Buchholz's lab (Biacchesi S. et al., J Virol. 2007 June; 81(11): 6057-6067) and propagated in VERO cells (ATCC Cat #CCL-81) with a Multiplicity of Infection (MOI) of 0.1. Virus was harvested 4 days after infection by collecting cultured material and was freeze-thaw cycled in liquid nitrogen twice. Working virus stocks were generated from thawing frozen samples in 37° C. water bath, which were centrifuged at 218 g for 15 min at 4° C. 1/10 of 10×SPG (Biological Industries 06-3061-01-5A) were added and then mixed. The supernatant was aliquoted, frozen in liquid nitrogen, and then transferred to a −80° C. freezer for storage. Virus titer was determined by performing titration test in 96-well plates and calculate approximate virus titer using GFP event/well data.
Compound plates were prepared by dispensing compounds dissolved in DMSO into wells of a 384 well Corning 3985 polystyrene flat clear bottom optical imaging microplate (202.5 nL/well) using an ECHO acoustic dispenser. Each compound was tested in 10-point serial 3-fold dilution (typical final concentrations: 40,300 nM-2 nM). […] Continuous culture of VERO cells was maintained in complete culture media (OptiMEM supplemented with 2 mM GlutaMAX™ and 100 U/ml Penicillin-Streptomycin). To set up the assay, VERO cells were trypsinized with 0.25% Trypsin-EDTA until cells were dislodged, then cells were re-suspended with 1 mL FBS. Cells were spundown at 300 g for 5 minutes and cells were washed twice with culture media and counted using default parameters on ViCell. Cells were then diluted to 100,000 cells/mL (5,000 cells/50 μL) in complete culture media+TrypLE Select (80 μL/mL). hMPV-GFP virus was added to cells at 125,000 pfu/mL (MOI=1.25) and were mixed by gentle inversion. 10 μL/well of 100% DMSO was dispensed to CellTiter-Glo (CTG) assay Max_E controls wells. Cells were dispensed at 50 μL/well using Bravo and 50 μL filtered tips into compound plates. Plates were covered with MicroClime lids and loaded with 7.5 mL of assay media to minimize evaporation. Plates were lightly shaken for 10 minutes at room temperature and then incubated at 37° C. and 5% CO2 for 48 hrs. Following incubation, distinct GFP-expressing cells were counted using an Acumen imaging system with appropriate settings. A same-well CTG assay was performed by adding 10 μL/well reconstituted CellTiter-Glo reagent (Promega G7573) and plates were read on PerkinElmer Envision according to manufacturer's instructions. Raw data were loaded and analyzed in ActivityBase. Antiviral IC50 and cytotoxicity CC50 values were determined using a 4 parameter logistic fit based on the Levenberg-Marquardt algorithm. Model: 205-4 Parameter Logistic.

[3] = human respiratory syncytial virus, Calu-1, 96 h, read-out: RSV EC50, Table I Summary of Activities for RSV
[4] = Vero, 48 h, read-out: RSV EC50, Table II Summary of Activities for hMPV
[5] = read-out: RSV EC50, Table I Summary of Activities for RSV
[6] = read-out: RSV EC50, Table II Summary of Activities for hMPV
[7] = Table I Summary of Activities for RSV, read-out: RSV EC50
[8] = Table II Summary of Activities for hMPV, read-out: RSV EC50

SMILES | EC50 [1, 3] | EC50 [2, 4] | EC50 [1, 7] | EC50 [2, 8] | other results
Cn1nc(-c2ncco2)cc1C(=O)N1C[C@@H]2[C@H]1C[C@H]2Oc1cc(C(C)(C)N)cc(-c2ccc(F)cc2)n1 (single isomer, unassigned; enantiomer 2) [Example 2] | 10 to 100 nM | > 100 nM | – | – | –
Cn1nc(-c2cscn2)cc1C(=O)N1C[C@@H]2[C@H](C1)[C@H]2Oc1cc(C2(C)CCCN2)cc(-c2ccc(F)cc2)n1 (single isomer, unassigned; enantiomer 1) [Example 56A] | < 10 nM | > 100 nM | – | – | –
CC(N)c1cc(O[C@H]2[C@@H]3CN(C(=O)c4cc(-c5cscn5)nn4C)C[C@@H]32)nc(-c2ccc(F)cc2)c1 (single isomer, unassigned; enantiomer 1) [Example 61A] | < 10 nM | > 100 nM | – | – | –
Cn1nc(-c2ncco2)cc1C(=O)N1C[C@H]2[C@H](Oc3cc(C(C)(C)N)cc(-c4ccc(F)cc4)n3)[C@@]2(C)C1 (single isomer, unassigned; enantiomer 2) [Example 44B] | – | – | – | – | EC50 [1, 5]: < 10 nM; EC50 [2, 6]: 10 to 100 nM
Cc1nc(-c2ncco2)sc1C(=O)N1C[C@@H]2[C@H](C1)[C@H]2Oc1cc(C(C)(C)N)cc(-n2cc(C3CC3)cn2)n1 [Example 37, ((1R,5S,6s)-6-((4-(2-aminopropan-2-yl)-6-(4-cyclopropyl-1H-pyrazol-1-yl)pyridin-2-yl)oxy)-3-azabicyclo[3.1.0]hexan-3-yl)(4-methyl-2-(oxazol-2-yl)thiazol-5-yl)methanone] | – | – | < 10 nM | > 100 nM | –
Cn1nc(-c2cscn2)cc1C(=O)N1C[C@@H]2[C@H](C1)[C@H]2Oc1cc(C2(C)CNC2=O)cc(-c2ccc(F)cc2)n1 (single isomer, unassigned; ent-3) [Example 50A] | < 10 nM | > 100 nM | – | – | –
Cc1nn(-c2cscn2)cc1C(=O)N1C[C@@H]2[C@H](C1)[C@H]2Oc1cc(C(C)(C)N)cc(-c2ccc(F)cc2)n1 [Example 28, ((1R,5S,6s)-6-((4-(2-aminopropan-2-yl)-6-(4-fluorophenyl)pyridin-2-yl)oxy)-3-azabicyclo[3.1.0]hexan-3-yl)(3-methyl-1-(thiazol-4-yl)-1H-pyrazol-4-yl)methanone] | – | – | < 10 nM | > 100 nM | –
Cn1nc(-c2cscn2)cc1C(=O)N1C[C@@H]2[C@H](C1)[C@H]2Oc1cc(C2(N)CCCC2)cc(-c2ccc(F)cc2)n1 [Example 53, ((1R,5S,6s)-6-((4-(1-aminocyclopentyl)-6-(4-fluorophenyl)pyridin-2-yl)oxy)-3-azabicyclo[3.1.0]hexan-3-yl)(1-methyl-3-(thiazol-4-yl)-1H-pyrazol-5-yl)methanone] | < 10 nM | > 100 nM | – | – | –
Cn1nc(-c2ncco2)cc1C(=O)N1C[C@@H]2[C@H](C1)[C@H]2Oc1cc(-c2ccc(F)cc2)cc(C(C)(C)N)n1 [Example 60, ((1R,5S,6s)-6-((6-(2-aminopropan-2-yl)-4-(4-fluorophenyl)pyridin-2-yl)oxy)-3-azabicyclo[3.1.0]hexan-3-yl)(1-methyl-3-(oxazol-2-yl)-1H-pyrazol-5-yl)methanone] | – | – | < 10 nM | > 100 nM | –
Cn1nc(-c2cscn2)cc1C(=O)N1C[C@@H]2[C@H](C1)[C@H]2Oc1cc(C(C)(C)C(N)=O)cc(-c2ccc(F)cc2)n1 [Example 48, 2-(2-(4-fluorophenyl)-6-(((1R,5S,6s)-3-(1-methyl-3-(thiazol-4-yl)-1H-pyrazole-5-carbonyl)-3-azabicyclo[3.1.0]hexan-6-yl)oxy)pyridin-4-yl)-2-methylpropanamide] | < 10 nM | > 100 nM | – | – | –
Cn1nc(-c2cscn2)cc1C(=O)N1C[C@@H]2[C@H](C1)[C@H]2Oc1cc(C(C)(C)N)cc(C2CCC(C)(C)CC2O)n1 (single isomer, unassigned; enantiomer 2) [Example 66B] | – | – | – | – | EC50 [1, 5]: 10 to 100 nM; EC50 [2, 6]: > 100 nM
Cn1nc(-c2cscn2)nc1C(=O)N1C[C@@H]2[C@H](C1)[C@H]2Oc1cc(C(C)(C)N)cc(-c2ccc(F)cc2)n1 [Example 30, ((1R,5S,6s)-6-((4-(2-aminopropan-2-yl)-6-(4-fluorophenyl)pyridin-2-yl)oxy)-3-azabicyclo[3.1.0]hexan-3-yl)(1-methyl-3-(thiazol-4-yl)-1H-1,2,4-triazol-5-yl)methanone] | – | – | < 10 nM | > 100 nM | –
Cn1nc(-c2ccon2)cc1C(=O)N1C[C@H]2[C@H](Oc3cc(C(C)(C)N)cc(-c4ccc(F)cc4)n3)[C@@]2(C)C1 (single isomer, unassigned; enantiomer 2) [Example 45B] | – | – | – | – | EC50 [1, 5]: < 10 nM; EC50 [2, 6]: > 100 nM
CCc1nc(-c2nc[nH]n2)sc1C(=O)N1C[C@@H]2[C@H](C1)[C@H]2Oc1cc(C(C)(C)N)cc(-c2ccc(F)cc2)n1 [Example 11, ((1R,5S,6s)-6-((4-(2-aminopropan-2-yl)-6-(4-fluorophenyl)pyridin-2-yl)oxy)-3-azabicyclo[3.1.0]hexan-3-yl)(4-ethyl-2-(1H-1,2,4-triazol-3-yl)thiazol-5-yl)methanone] | – | – | < 10 nM | > 100 nM | –

From US12565494B2, “Inhibitors of human respiratory syncytial virus and metapneumovirus” (priority 2022, dated 2026)
